According to patent publication US11382328B2, “Rapid drug discovery methods for pathogen inactivation” (priority 2019, dated 2022):

System: E. coli strain W3110
Assay: Synergy assays: Biolog chemical sensitivity panels with Group IB metal, coefficient of drug interaction (CDI) from relative growth
Format: cell-based
Conditions: for CDI (coefficient of drug interaction), gold + biocide: Gold (μM); for CDI (coefficient of drug interaction), copper mixed with biocide: Copper (mM) section
[1] = Gold 50 μM, biocide concentration 4 of 4, E. coli
[2] = first of 3 gold concentrations, biocide concentration 4 of 4
[3] = second of 3 gold concentrations, biocide concentration 4 of 4
[4] = third of 3 gold concentrations, biocide concentration 4 of 4
[5] = Silver 0.5 μM, biocide concentration 3 of 4
[6] = Silver 0.5 μM, biocide concentration 4 of 4
[7] = Silver 1.0 μM, biocide concentration 3 of 4
[8] = Silver 1.0 μM, biocide concentration 4 of 4
[9] = Silver 5.0 μM, biocide concentration 3 of 4
[10] = Silver 5.0 μM, biocide concentration 4 of 4
[11] = 1st of 3 copper concentrations (value not shown), 3rd of four biocide concentrations
[12] = 1st of 3 copper concentrations (value not shown), 4th of four biocide concentrations
[13] = 2nd of 3 copper concentrations (value not shown), 3rd of four biocide concentrations
[14] = 2nd of 3 copper concentrations (value not shown), 4th of four biocide concentrations
[15] = 3rd of 3 copper concentrations (value not shown), 3rd of four biocide concentrations
[16] = 3rd of 3 copper concentrations (value not shown), 4th of four biocide concentrations
[17] = Gold section of Table 5, first of three gold concentrations (μM, value not given), biocide concentration 4 of 4
[18] = Gold section of Table 5, second of three gold concentrations (μM, value not given), biocide concentration 3 of 4
[19] = Gold section of Table 5, second of three gold concentrations (μM, value not given), biocide concentration 4 of 4
[20] = Gold section of Table 5, third of three gold concentrations (μM, value not given), biocide concentration 3 of 4
[21] = Gold section of Table 5, third of three gold concentrations (μM, value not given), biocide concentration 4 of 4
[22] = Silver 0.5 μM, 2nd of four biocide concentrations, E. coli
[23] = Silver 0.5 μM, 4th of four biocide concentrations, E. coli
[24] = Silver 1.0 μM, 2nd of four biocide concentrations, E. coli
[25] = Silver 1.0 μM, 4th of four biocide concentrations, E. coli
[26] = Silver 5.0 μM, 2nd of four biocide concentrations, E. coli
[27] = Silver 5.0 μM, 4th of four biocide concentrations, E. coli

O=C1CN(/N=C/c2ccc([N+](=O)[O-])o2)C(=O)N1 [nitrofurantoin]
Tox: CDI (coefficient of drug interaction) [1]

CCn1cc(C(=O)O)c(=O)c2cc(F)c(N3CCNCC3)cc21 [norfloxacin]
Tox: CDI (coefficient of drug interaction) [1]

Cc1onc(-c2ccccc2)c1C(=O)N[C@@H]1C(=O)N2[C@@H]1SC(C)(C)[C@@H]2C(=O)O [oxacillin]
Tox: CDI (coefficient of drug interaction) (Copper (mM), 1st of 3 copper concentrations (head line not shown), biocide concentration 3 of 4, E. coli) | CDI (coefficient of drug interaction) (Copper (mM), 1st of 3 copper concentrations (head line not shown), biocide concentration 4 of 4, E. coli) | CDI (coefficient of drug interaction) (Copper (mM), 2nd of 3 copper concentrations (head line not shown), biocide concentration 3 of 4, E. coli) | CDI (coefficient of drug interaction) (Copper (mM), 2nd of 3 copper concentrations (head line not shown), biocide concentration 4 of 4, E. coli) | CDI (coefficient of drug interaction) (Copper (mM), 3rd of 3 copper concentrations (head line not shown), biocide concentration 3 of 4, E. coli) | CDI (coefficient of drug interaction) (Copper (mM), 3rd of 3 copper concentrations (head line not shown), biocide concentration 4 of 4, E. coli) | CDI (coefficient of drug interaction), gold + biocide [2] | CDI (coefficient of drug interaction), gold + biocide [3] | CDI (coefficient of drug interaction), gold + biocide [4] | CDI [5] | CDI [6] | CDI [7] | CDI [8] | CDI [9] | CDI [10]

O=C1C=C2C(=CCOC2O)O1 (stereo not shown) [patulin]
Tox: CDI (coefficient of drug interaction), copper mixed with biocide (1st of 3 copper concentrations (value not shown), 1st of four biocide concentrations) | CDI (coefficient of drug interaction), copper mixed with biocide (1st of 3 copper concentrations (value not shown), 2nd of four biocide concentrations) | CDI (coefficient of drug interaction), copper mixed with biocide [11] | CDI (coefficient of drug interaction), copper mixed with biocide [12] | CDI (coefficient of drug interaction), copper mixed with biocide (2nd of 3 copper concentrations (value not shown), 1st of four biocide concentrations) | CDI (coefficient of drug interaction), copper mixed with biocide (2nd of 3 copper concentrations (value not shown), 2nd of four biocide concentrations) | CDI (coefficient of drug interaction), copper mixed with biocide [13] | CDI (coefficient of drug interaction), copper mixed with biocide [14] | CDI (coefficient of drug interaction), copper mixed with biocide (3rd of 3 copper concentrations (value not shown), 1st of four biocide concentrations) | CDI (coefficient of drug interaction), copper mixed with biocide (3rd of 3 copper concentrations (value not shown), 2nd of four biocide concentrations) | CDI (coefficient of drug interaction), copper mixed with biocide [15] | CDI (coefficient of drug interaction), copper mixed with biocide [16] | CDI (coefficient of drug interaction) (Gold section of Table 5, first of three gold concentrations (μM, value not given), biocide concentration 2 of 4) | CDI (coefficient of drug interaction) (Gold section of Table 5, first of three gold concentrations (μM, value not given), biocide concentration 3 of 4) | CDI (coefficient of drug interaction) [17] | CDI (coefficient of drug interaction) (Gold section of Table 5, second of three gold concentrations (μM, value not given), biocide concentration 2 of 4) | CDI (coefficient of drug interaction) [18] | CDI (coefficient of drug interaction) [19] | CDI (coefficient of drug interaction) (Gold section of Table 5, third of three gold concentrations (μM, value not given), biocide concentration 2 of 4) | CDI (coefficient of drug interaction) [20] | CDI (coefficient of drug interaction) [21] | CDI (coefficient of drug interaction), silver + biocide [22] | CDI (coefficient of drug interaction), silver + biocide (Silver 0.5 μM, 3rd of four biocide concentrations, E. coli) | CDI (coefficient of drug interaction), silver + biocide [23] | CDI (coefficient of drug interaction), silver + biocide [24] | CDI (coefficient of drug interaction), silver + biocide (Silver 1.0 μM, 3rd of four biocide concentrations, E. coli) | CDI (coefficient of drug interaction), silver + biocide [25] | CDI (coefficient of drug interaction), silver + biocide [26] | CDI (coefficient of drug interaction), silver + biocide (Silver 5.0 μM, 3rd of four biocide concentrations, E. coli) | CDI (coefficient of drug interaction), silver + biocide [27]

CCn1cc(C(=O)O)c(=O)c2cnc(N3CCNCC3)nc21 [pipemidic acid]
Tox: CDI (coefficient of drug interaction), copper mixed with biocide [11] | CDI (coefficient of drug interaction), copper mixed with biocide [12] | CDI (coefficient of drug interaction), copper mixed with biocide [13] | CDI (coefficient of drug interaction), copper mixed with biocide [14] | CDI (coefficient of drug interaction), copper mixed with biocide [15] | CDI (coefficient of drug interaction), copper mixed with biocide [16]

CCN1CCN(C(=O)N[C@@H](C(=O)N[C@@H]2C(=O)N3[C@@H]2SC(C)(C)[C@@H]3C(=O)O)c2ccccc2)C(=O)C1=O [piperacillin]
Tox: CDI (coefficient of drug interaction), gold + biocide [2] | CDI (coefficient of drug interaction), gold + biocide [3] | CDI (coefficient of drug interaction), gold + biocide [4] | CDI [5] | CDI [6] | CDI [7] | CDI [8] | CDI [9] | CDI [10]

OC(CCN1CCCCC1)(c1ccccc1)c1ccccc1 [pridinol]
Tox: CDI (coefficient of drug interaction), copper mixed with biocide [12] | CDI (coefficient of drug interaction), copper mixed with biocide [14] | CDI (coefficient of drug interaction), copper mixed with biocide [16] | CDI (coefficient of drug interaction) [17] | CDI (coefficient of drug interaction) [18] | CDI (coefficient of drug interaction) [19] | CDI (coefficient of drug interaction) [20] | CDI (coefficient of drug interaction) [21] | CDI (coefficient of drug interaction), silver + biocide [22] | CDI (coefficient of drug interaction), silver + biocide [23] | CDI (coefficient of drug interaction), silver + biocide [24] | CDI (coefficient of drug interaction), silver + biocide [25] | CDI (coefficient of drug interaction), silver + biocide [26] | CDI (coefficient of drug interaction), silver + biocide [27]
